Assays:
Lck (h) = Lck (h) (Homo sapiens, UniProt P06239); experiment: Lck Human  Kinase Enzymatic Radiometric Assay; format: biochemical; details: read-out: Lck IC50 nM Range*
How it was run: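 Substrate 33P-incorporation measured by scintillation counting after spotting on P30 filtermat and phosphoric acid washes. Human Lck reacted 40 min at RT in 50 mM Tris pH 7.5 with 10 mM MgAcetate, [gamma-33P]-ATP, 250 uM Cdc2 peptide, 0.1 mM EGTA and 0.1 mM Na3VO4.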

[1] = molecular target: T1, Recombinant (1-346) HPK1 (h) (Homo sapiens, UniProt Q92918); experiment: HPK1 Human STE Kinase Enzymatic Radiometric Assay; format: biochemical; details: read-out: HPK1 IC50 nM Range*
T1 construct: Recombinant (1-346) HPK1 (h) is incubated with 8 mM MOPS pH 7.0
T1 sequence (Q92918 1-346): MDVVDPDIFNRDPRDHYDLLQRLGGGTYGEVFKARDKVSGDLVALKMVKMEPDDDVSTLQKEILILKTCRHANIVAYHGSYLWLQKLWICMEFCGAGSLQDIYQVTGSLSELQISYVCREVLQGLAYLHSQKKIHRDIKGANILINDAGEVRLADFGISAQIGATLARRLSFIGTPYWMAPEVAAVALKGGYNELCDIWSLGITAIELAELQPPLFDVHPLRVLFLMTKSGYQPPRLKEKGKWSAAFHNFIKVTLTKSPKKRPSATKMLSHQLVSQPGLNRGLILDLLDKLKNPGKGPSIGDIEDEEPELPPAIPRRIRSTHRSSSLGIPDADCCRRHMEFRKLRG
Description: A stock solution of 10 mM of test compound is prepared in DMSO. The compound plate was prepared by 3-fold and 9-point serial dilutions. […] The reaction is initiated by The addition of the Mg/ATP mix. After incubation for 40 minutes at RT, the reaction is stopped by the addition of phosphoric acid to a concentration of 0.5%.

Chain of Lck (h) (P06239 whole entry): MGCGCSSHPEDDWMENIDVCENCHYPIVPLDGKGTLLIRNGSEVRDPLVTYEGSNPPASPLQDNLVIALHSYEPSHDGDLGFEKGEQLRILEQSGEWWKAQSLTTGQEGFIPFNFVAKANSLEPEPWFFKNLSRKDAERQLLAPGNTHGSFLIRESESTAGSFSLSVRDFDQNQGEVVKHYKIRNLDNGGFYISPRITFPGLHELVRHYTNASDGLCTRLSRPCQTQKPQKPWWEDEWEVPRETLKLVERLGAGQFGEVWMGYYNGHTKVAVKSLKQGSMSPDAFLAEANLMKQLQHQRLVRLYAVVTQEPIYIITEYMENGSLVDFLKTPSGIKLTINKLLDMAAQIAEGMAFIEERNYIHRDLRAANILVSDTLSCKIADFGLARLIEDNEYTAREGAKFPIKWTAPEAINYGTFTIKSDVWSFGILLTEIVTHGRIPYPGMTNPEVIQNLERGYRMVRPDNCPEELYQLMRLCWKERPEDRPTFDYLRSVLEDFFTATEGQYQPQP

IC50 (Lck (h)) [nM]	IC50 [1] [nM]	Structure (SMILES)
> 1000	0.1 to 10	CC(C)[C@H]1CN(c2ccc(-c3cc(-c4cc5c(cn4)C(=O)NCC5)c(N)nc3F)cc2)CCO1 [I-77, (S)-6-(2-amino-6-fluoro-5-(4-(2-isopropylmorpholino)phenyl)pyridin-3-yl)-3,4-dihydro-2,7-naphthyridin-1(2H)-one 2,2,2-trifluoroacetate]
> 1000	0.1 to 10	CC(C)N1CCC(c2ccc(-c3cc(-c4ccc5c(c4)CCNC5=O)c(N)nc3F)cc2)CC1 [I-79, 6-(2-amino-6-fluoro-5-(4-(1-isopropylpiperidin-4-yl)phenyl)pyridin-3-yl)-3,4-dihydroisoquinolin-1(2H)-one]
> 1000	0.1 to 10	CC(C)N1CCCC(c2ccc(-c3cc(-c4ccc5c(c4)CCNC5=O)c(N)nc3F)cc2)C1 (stereo not drawn) [I-80, 6-(2-amino-6-fluoro-5-(4-(1-isopropylpiperidin-3-yl)phenyl)pyridin-3-yl)-3,4-dihydroisoquinolin-1(2H)-one]
> 1000	0.1 to 10	Nc1nc(F)c(-c2ccc(C3CCCN(CCO)C3)cc2)cc1-c1ccc2c(c1)CCNC2=O (stereo not drawn) [I-82, 6-(2-amino-6-fluoro-5-(4-(1-(2-hydroxyethyl)piperidin-3-yl)phenyl)pyridin-3-yl)-3,4-dihydroisoquinolin-1(2H)-one]
> 1000	11 to 100	CC(C)(C)OC(=O)N1CCC(S(=O)(=O)c2ccc(-c3cc(-c4ccc5c(c4)CCNC5=O)c(N)nc3F)cc2)CC1 [I-83, tert-butyl 4-((4-(6-amino-2-fluoro-5-(1-oxo-1,2,3,4-tetrahydroisoquinolin-6-yl)pyridin-3-yl)phenyl)sulfonyl)piperidine-1-carboxylate]
> 1000	11 to 100	Nc1nc(F)c(-c2ccc(S(=O)(=O)C3CNC3)cc2)cc1-c1ccc2c(c1)CCNC2=O [I-84, 6-(2-amino-5-(4-(azetidin-3-ylsulfonyl)phenyl)-6-fluoropyridin-3-yl)-3,4-dihydroisoquinolin-1(2H)-one]
> 1000	11 to 100	CCS(=N)(=O)c1ccc(-c2cc(-c3ccc4c(c3)CCNC4=O)c(N)nc2F)cc1 (stereo not drawn) [I-85, 6-(2-amino-5-(4-(ethylsulfonimidoyl)phenyl)-6-fluoropyridin-3-yl)-3,4-dihydroisoquinolin-1(2H)-one]
> 1000	0.1 to 10	CS(=N)(=O)c1ccc(-c2cc(-c3ccc4c(c3)CCNC4=O)c(N)nc2F)cc1 (stereo not drawn) [I-86, 6-(2-amino-6-fluoro-5-(4-(S-methylsulfonimidoyl)phenyl)pyridin-3-yl)-3,4-dihydroisoquinolin-1(2H)-one]
> 1000	11 to 100	Nc1nc(F)c(-c2ccc(S(=O)(=O)C(F)(F)F)cc2)cc1-c1ccc2c(c1)CCNC2=O [I-87, 6-(2-amino-6-fluoro-5-(4-((trifluoromethyl)sulfonyl)phenyl)pyridin-3-yl)-3,4-dihydroisoquinolin-1(2H)-one]
> 1000	0.1 to 10	CC1CN(c2ccc(-c3cc(-c4ccc5c(c4)CCNC5=O)c(N)nc3F)cc2)CCN1C (stereo not drawn) [I-88, 6-(2-amino-5-(4-(3,4-dimethylpiperazin-1-yl)phenyl)-6-fluoropyridin-3-yl)-3,4-dihydroisoquinolin-1(2H)-one]
> 1000	11 to 100	Nc1nc(F)c(-c2ccc(C3CCCN(CC(F)(F)F)C3)cc2)cc1-c1ccc2c(c1)CCNC2=O (stereo not drawn) [I-89, 6-(2-amino-6-fluoro-5-(4-(1-(2,2,2-trifluoroethyl)piperidin-3-yl)phenyl)pyridin-3-yl)-3,4-dihydroisoquinolin-1(2H)-one]
> 1000	11 to 100	Nc1nc(F)c(-c2ccc(C3CN(CC(F)(F)F)CCO3)cc2)cc1-c1ccc2c(c1)CCNC2=O (stereo not drawn) [I-90, 6-(2-amino-6-fluoro-5-(4-(4-(2,2,2-trifluoroethyl)morpholin-2-yl)phenyl)pyridin-3-yl)-3,4-dihydroisoquinolin-1(2H)-one]
> 1000	11 to 100	Nc1nc(F)c(-c2ccc(N3C[C@H]4COC[C@H]4C3)cc2)cc1-c1ccc2c(c1)CCNC2=O [I-91, 6-(2-amino-6-fluoro-5-(4-((3aR,6aS)-tetrahydro-1H-furo[3,4-c]pyrrol-5(3H)-yl)phenyl)pyridin-3-yl)-3,4-dihydroisoquinolin-1(2H)-one]
> 1000	0.1 to 10	Nc1nc(F)c(-c2ccc(N3C[C@@H]4CCO[C@@H]4C3)cc2)cc1-c1ccc2c(c1)CCNC2=O [I-92, 6-(2-amino-6-fluoro-5-(4-((3aS,6aS)-hexahydro-5H-furo[2,3-c]pyrrol-5-yl)phenyl)pyridin-3-yl)-3,4-dihydroisoquinolin-1(2H)-one]

More lines, now with the values behind:

Structure (SMILES)	IC50 (Lck (h)) [nM]	IC50 [1] [nM]
Nc1nc(F)c(-c2ccc([C@@]34C[C@@H]3CN(C3CCOCC3)C4)cc2)cc1-c1ccc2c(c1)CCNC2=O [I-66, 6-(2-amino-6-fluoro-5-(4-((1R,5S)-3-(tetrahydro-2H-pyran-4-yl)-3-azabicyclo[3.1.0]hexan-1-yl)phenyl)pyridin-3-yl)-3,4-dihydroisoquinolin-1(2H)-one]	> 1000	0.1 to 10
CCN1CCN(c2ccc(-c3cc(-c4ccc5c(c4)CCCNC5=O)c(N)nc3F)cc2)CC1 [I-67, 7-(2-amino-5-(4-(4-ethylpiperazin-1-yl)phenyl)-6-fluoropyridin-3-yl)-2,3,4,5-tetrahydro-1H-benzo[c]azepin-1-one]	> 1000	11 to 100
CN1CCN(c2ccc(-c3cc(-c4ccc5c(c4)CCNC5=O)c(N)nc3F)cc2C(F)(F)F)CC1 [I-68, 6-(2-amino-6-fluoro-5-(4-(4-methylpiperazin-1-yl)-3-(trifluoromethyl)phenyl)pyridin-3-yl)-3,4-dihydroisoquinolin-1(2H)-one]	> 1000	0.1 to 10
CCN1CCN(c2ccc(-c3cc(-c4ccc5c(c4)C(C)(C)CNC5=O)c(N)nc3F)cc2)CC1 [I-69, 6-(2-amino-5-(4-(4-ethylpiperazin-1-yl)phenyl)-6-fluoropyridin-3-yl)-4,4-dimethyl-3,4-dihydroisoquinolin-1(2H)-one]	101 to 1000	0.1 to 10
CCN1CCN(c2ccc(-c3cc(-c4ccc5c(c4)CC(C)(C)NC5=O)c(N)nc3F)cc2)CC1 [I-70, 6-(2-amino-5-(4-(4-ethylpiperazin-1-yl)phenyl)-6-fluoropyridin-3-yl)-3,3-dimethyl-3,4-dihydroisoquinolin-1(2H)-one 2,2,2-trifluoroacetate]	> 1000	11 to 100
CCN1C[C@H]2C[C@@]2(c2ccc(-c3cc(-c4ccc5c(c4)CCNC5=O)c(N)nc3F)cc2)C1 [I-71, 6-(2-amino-5-(4-((1R,5S)-3-ethyl-3-azabicyclo[3.1.0]hexan-1-yl)phenyl)-6-fluoropyridin-3-yl)-3,4-dihydroisoquinolin-1(2H)-one]	> 1000	0.1 to 10
Nc1nc(F)c(-c2ccc([C@@]34C[C@@H]3CN(CC(F)F)C4)cc2)cc1-c1ccc2c(c1)CCNC2=O [I-72, 6-(2-amino-5-(4-((1R,5S)-3-(2,2-difluoroethyl)-3-azabicyclo[3.1.0]hexan-1-yl)phenyl)-6-fluoropyridin-3-yl)-3,4-dihydroisoquinolin-1(2H)-one]	> 1000	11 to 100
Nc1nc(F)c(-c2ccc(C3=CCN(CC(F)F)CC3)cc2)cc1-c1ccc2c(c1)CCNC2=O [I-73, 6-(2-amino-5-(4-(1-(2,2-difluoroethyl)-1,2,3,6-tetrahydropyridin-4-yl)phenyl)-6-fluoropyridin-3-yl)-3,4-dihydroisoquinolin-1(2H)-one]	> 1000	0.1 to 10
CN1CCN(c2ccc(-c3cc(-c4ccc5c(c4)CCNC5=O)c(N)nc3Cl)cc2)CC1 [I-74, 6-(2-amino-6-chloro-5-(4-(4-methylpiperazin-1-yl)phenyl)pyridin-3-yl)-3,4-dihydroisoquinolin-1(2H)-one]	> 1000	11 to 100
CCN1CCN(c2ccc(-c3cc(-c4ccc5c(c4)CCNC5=O)c(N)nc3Cl)cc2)CC1 [I-75, 6-(2-amino-6-chloro-5-(4-(4-ethylpiperazin-1-yl)phenyl)pyridin-3-yl)-3,4-dihydroisoquinolin-1(2H)-one]	> 1000	11 to 100
CCN1CC=C(c2ccc(-c3cc(-c4ccc5c(c4)CCNC5=O)c(N)nc3F)cc2)CC1 [I-76, 6-(2-amino-5-(4-(1-ethyl-1,2,3,6-tetrahydropyridin-4-yl)phenyl)-6-fluoropyridin-3-yl)-3,4-dihydroisoquinolin-1(2H)-one]	> 1000	0.1 to 10
Nc1nc(F)c(-c2ccc(C3CCCN(CC(F)F)C3)cc2)cc1-c1ccc2c(c1)CCNC2=O (stereo not drawn) [I-78, 6-(2-amino-5-(4-(1-(2,2-difluoroethyl)piperidin-3-yl)phenyl)-6-fluoropyridin-3-yl)-3,4-dihydroisoquinolin-1(2H)-one]	> 1000	0.1 to 10
CC(C)N1CC=C(c2ccc(-c3cc(-c4ccc5c(c4)CCNC5=O)c(N)nc3F)cc2)CC1 [I-81, 6-(2-amino-6-fluoro-5-(4-(1-isopropyl-1,2,3,6-tetrahydropyridin-4-yl)phenyl)pyridin-3-yl)-3,4-dihydroisoquinolin-1(2H)-one]	> 1000	0.1 to 10
